Test results: ChEMBL document CHEMBL4725375, “Total synthesis and a systematic structure-activity relationship study of WAP-8294A2” (2020)
In brackets after ≈: the same amount, converted by molar mass.

Experiments:
[1] = tested on: Staphylococcus aureus; assay: Antibacterial activity against methicillin-resistant Staphylococcus aureus SA86 by CLSI M07-A8 protocol based microdilution method; format: functional
[2] = tested on: Staphylococcus aureus; assay: Antibacterial activity against Staphylococcus aureus ATCC 29213 by CLSI M07-A8 protocol based microdilution method; format: functional

SMILES | MIC [1] | MIC [2]
CC(C)CCC[C@@H]1CC(=O)N[C@@H](CO)C(=O)N[C@H](CC(N)=O)C(=O)N[C@@H](CO)C(=O)NCC(=O)N(C)[C@H](Cc2ccccc2)C(=O)N[C@@H](CC(C)C)C(=O)N[C@H](CCCN)C(=O)N[C@@H](CCC(=O)O)C(=O)N[C@H](CC(N)=O)C(=O)N[C@H](C)C(=O)N[C@H](CCCN)C(=O)N(C)[C@@H](C(C)C)C(=O)O1 | ≥ 32 µg/mL | ≥ 32 µg/mL
CC(C)CCC[C@@H]1CC(=O)N[C@@H](CO)C(=O)N[C@H](CCCCN)C(=O)N[C@@H](CO)C(=O)NCC(=O)N(C)[C@H](Cc2ccccc2)C(=O)N[C@@H](CC(C)C)C(=O)N[C@H](CCCN)C(=O)N[C@@H](CCC(=O)O)C(=O)N[C@H](CC(N)=O)C(=O)N[C@H](Cc2c[nH]c3ccccc23)C(=O)N[C@H](CCCN)C(=O)N(C)[C@@H](C(C)C)C(=O)O1 | 1 µg/mL (≈ 0.641 µM) | 2 µg/mL (≈ 1.28 µM)
CC(C)CCC[C@@H]1CC(=O)N[C@@H](CO)C(=O)N[C@H](CC(N)=O)C(=O)N[C@@H](CO)C(=O)NCC(=O)N(C)[C@H](Cc2ccccc2)C(=O)N[C@@H](CC(C)C)C(=O)N[C@H](CCCN)C(=O)N[C@@H](CCC(=O)O)C(=O)N[C@H](CC(N)=O)C(=O)N[C@H](Cc2c[nH]c3ccccc23)C(=O)N[C@H](CCCCN)C(=O)N(C)[C@@H](C(C)C)C(=O)O1 | 2 µg/mL (≈ 1.28 µM) | 1 µg/mL (≈ 0.641 µM)
CC(C)CCC[C@@H]1CC(=O)N[C@@H](CO)C(=O)N[C@H](CC(N)=O)C(=O)N[C@@H](CO)C(=O)NCC(=O)N(C)[C@H](Cc2ccccc2)C(=O)N[C@@H](CC(C)C)C(=O)N[C@H](C)C(=O)N[C@@H](CCC(=O)O)C(=O)N[C@H](CC(N)=O)C(=O)N[C@H](Cc2c[nH]c3ccccc23)C(=O)N[C@H](CCCN)C(=O)N(C)[C@@H](C(C)C)C(=O)O1 | ≥ 32 µg/mL | ≥ 32 µg/mL
CC(C)CCC[C@@H]1CC(=O)N[C@@H](CO)C(=O)N[C@H](CC(N)=O)C(=O)N[C@@H](CO)C(=O)NCC(=O)N(C)[C@H](Cc2ccccc2)C(=O)N[C@@H](C)C(=O)N[C@H](CCCN)C(=O)N[C@@H](CCC(=O)O)C(=O)N[C@H](CC(N)=O)C(=O)N[C@H](Cc2c[nH]c3ccccc23)C(=O)N[C@H](CCCN)C(=O)N(C)[C@@H](C(C)C)C(=O)O1 | ≥ 32 µg/mL | ≥ 32 µg/mL
CC(C)CCC[C@@H]1CC(=O)N[C@@H](CO)C(=O)N[C@H](CC(N)=O)C(=O)N[C@@H](CO)C(=O)NCC(=O)N(C)[C@H](Cc2ccccc2)C(=O)N[C@@H](CC(C)C)C(=O)N[C@H](CCCN)C(=O)N[C@@H](CCCCN)C(=O)N[C@H](CC(N)=O)C(=O)N[C@H](Cc2c[nH]c3ccccc23)C(=O)N[C@H](CCCN)C(=O)N(C)[C@@H](C(C)C)C(=O)O1 | 1 µg/mL (≈ 0.647 µM) | 2 µg/mL (≈ 1.29 µM)
CC(C)CCC[C@@H]1CC(=O)N[C@@H](CCCCN)C(=O)N[C@H](CC(N)=O)C(=O)N[C@@H](CO)C(=O)NCC(=O)N(C)[C@H](Cc2ccccc2)C(=O)N[C@@H](CC(C)C)C(=O)N[C@H](CCCN)C(=O)N[C@@H](CCC(=O)O)C(=O)N[C@H](CC(N)=O)C(=O)N[C@H](Cc2c[nH]c3ccccc23)C(=O)N[C@H](CCCN)C(=O)N(C)[C@@H](C(C)C)C(=O)O1 | 2 µg/mL (≈ 1.26 µM) | 2 µg/mL (≈ 1.26 µM)
CC(C)CCC[C@@H]1CC(=O)N[C@@H](CO)C(=O)N[C@H](CC(N)=O)C(=O)N[C@@H](CO)C(=O)NCC(=O)N(C)[C@H](Cc2ccccc2)C(=O)N[C@@H](CC(C)C)C(=O)N[C@H](CCCN)C(=O)N[C@@H](CCC(=O)O)C(=O)N[C@H](CC(N)=O)C(=O)N[C@H](Cc2c[nH]c3ccccc23)C(=O)N[C@H](CCCN)C(=O)N[C@@H](C(C)C)C(=O)O1 | ≥ 32 µg/mL | ≥ 32 µg/mL
CC(C)CCC[C@@H]1CC(=O)N[C@@H](CO)C(=O)N[C@H](CC(N)=O)C(=O)N[C@@H](C)C(=O)NCC(=O)N(C)[C@H](Cc2ccccc2)C(=O)N[C@@H](CC(C)C)C(=O)N[C@H](CCCN)C(=O)N[C@@H](CCC(=O)O)C(=O)N[C@H](CC(N)=O)C(=O)N[C@H](Cc2c[nH]c3ccccc23)C(=O)N[C@H](CCCN)C(=O)N(C)[C@@H](C(C)C)C(=O)O1 | 2 µg/mL (≈ 1.31 µM) | 2 µg/mL (≈ 1.31 µM)
CC(C)CCC[C@@H]1CC(=O)N[C@@H](CO)C(=O)N[C@H](CC(N)=O)C(=O)N[C@@H](CCCCN)C(=O)NCC(=O)N(C)[C@H](Cc2ccccc2)C(=O)N[C@@H](CC(C)C)C(=O)N[C@H](CCCN)C(=O)N[C@@H](CCC(=O)O)C(=O)N[C@H](CC(N)=O)C(=O)N[C@H](Cc2c[nH]c3ccccc23)C(=O)N[C@H](CCCN)C(=O)N(C)[C@@H](C(C)C)C(=O)O1 | 2 µg/mL (≈ 1.26 µM) | 4 µg/mL (≈ 2.52 µM)
CC(C)CCC[C@@H]1CC(=O)N[C@@H](CO)C(=O)N[C@H](CC(N)=O)C(=O)N[C@@H](CO)C(=O)NCC(=O)N(C)[C@H](Cc2ccccc2)C(=O)N[C@@H](CCCCN)C(=O)N[C@H](CCCN)C(=O)N[C@@H](CCC(=O)O)C(=O)N[C@H](CC(N)=O)C(=O)N[C@H](Cc2c[nH]c3ccccc23)C(=O)N[C@H](CCCN)C(=O)N(C)[C@@H](C(C)C)C(=O)O1 | ≥ 32 µg/mL | ≥ 32 µg/mL
CC(C)CCC[C@@H]1CC(=O)N[C@@H](CO)C(=O)N[C@H](CC(N)=O)C(=O)N[C@@H](CO)C(=O)NCC(=O)N(C)[C@H](Cc2ccccc2)C(=O)N[C@@H](CC(C)C)C(=O)N[C@H](CCCN)C(=O)N[C@@H](C)C(=O)N[C@H](CC(N)=O)C(=O)N[C@H](Cc2c[nH]c3ccccc23)C(=O)N[C@H](CCCN)C(=O)N(C)[C@@H](C(C)C)C(=O)O1 | 0.5 µg/mL (≈ 0.336 µM) | 1 µg/mL (≈ 0.672 µM)
CC(C)CCC[C@@H]1CC(=O)N[C@@H](CO)C(=O)N[C@H](CC(N)=O)C(=O)N[C@@H](CO)C(=O)NCC(=O)N(C)[C@H](Cc2ccccc2)C(=O)N[C@@H](CC(C)C)C(=O)N[C@H](CCCN)C(=O)N[C@@H](CCC(=O)O)C(=O)N[C@H](CC(N)=O)C(=O)N[C@H](Cc2c[nH]c3ccccc23)C(=O)N[C@H](CCCN)C(=O)N(C)[C@@H](C(C)C)C(=O)O1 | 1 µg/mL (≈ 0.647 µM) | 1 µg/mL (≈ 0.647 µM)
CC(C)CCC[C@@H]1CC(=O)N[C@@H](CO)C(=O)N[C@H](CC(N)=O)C(=O)N[C@@H](CO)C(=O)N[C@@H](C)C(=O)N(C)[C@H](Cc2ccccc2)C(=O)N[C@@H](CC(C)C)C(=O)N[C@H](CCCN)C(=O)N[C@@H](CCC(=O)O)C(=O)N[C@H](CC(N)=O)C(=O)N[C@H](Cc2c[nH]c3ccccc23)C(=O)N[C@H](CCCN)C(=O)N(C)[C@@H](C(C)C)C(=O)O1 | ≥ 32 µg/mL | ≥ 32 µg/mL
CC(C)CCC[C@@H]1CC(=O)N[C@@H](CO)C(=O)N[C@H](C)C(=O)N[C@@H](CO)C(=O)NCC(=O)N(C)[C@H](Cc2ccccc2)C(=O)N[C@@H](CC(C)C)C(=O)N[C@H](CCCN)C(=O)N[C@@H](CCC(=O)O)C(=O)N[C@H](CC(N)=O)C(=O)N[C@H](Cc2c[nH]c3ccccc23)C(=O)N[C@H](CCCN)C(=O)N(C)[C@@H](C(C)C)C(=O)O1 | 2 µg/mL (≈ 1.33 µM) | 1 µg/mL (≈ 0.665 µM)
CC(C)CCC[C@@H]1CC(=O)N[C@@H](CO)C(=O)N[C@H](CC(N)=O)C(=O)N[C@@H](CO)C(=O)NCC(=O)N(C)[C@H](Cc2ccccc2)C(=O)N[C@@H](CC(C)C)C(=O)N[C@H](CCCN)C(=O)N[C@@H](CCC(=O)O)C(=O)N[C@H](CCCCN)C(=O)N[C@H](Cc2c[nH]c3ccccc23)C(=O)N[C@H](CCCN)C(=O)N(C)[C@@H](C(C)C)C(=O)O1 | 1 µg/mL (≈ 0.641 µM) | 1 µg/mL (≈ 0.641 µM)
CC(C)CCC[C@@H]1CC(=O)N[C@@H](C)C(=O)N[C@H](CC(N)=O)C(=O)N[C@@H](CO)C(=O)NCC(=O)N(C)[C@H](Cc2ccccc2)C(=O)N[C@@H](CC(C)C)C(=O)N[C@H](CCCN)C(=O)N[C@@H](CCC(=O)O)C(=O)N[C@H](CC(N)=O)C(=O)N[C@H](Cc2c[nH]c3ccccc23)C(=O)N[C@H](CCCN)C(=O)N(C)[C@@H](C(C)C)C(=O)O1 | 2 µg/mL (≈ 1.31 µM) | 2 µg/mL (≈ 1.31 µM)
CC(C)CCC[C@@H]1CC(=O)N[C@@H](CO)C(=O)N[C@H]([C@@H](O)C(N)=O)C(=O)N[C@@H](CO)C(=O)NCC(=O)N(C)[C@H](Cc2ccccc2)C(=O)N[C@@H](CC(C)C)C(=O)N[C@H](CCCN)C(=O)N[C@@H](CCC(=O)O)C(=O)N[C@H](CC(N)=O)C(=O)N[C@H](Cc2c[nH]c3ccccc23)C(=O)N[C@H](CCCN)C(=O)N(C)[C@@H](C(C)C)C(=O)O1 | 1 µg/mL (≈ 0.64 µM) | 1 µg/mL (≈ 0.64 µM)
CC(C)CCC[C@@H]1CC(=O)N[C@@H](CO)C(=O)N[C@H](CC(N)=O)C(=O)N[C@@H](CO)C(=O)NCC(=O)N(C)[C@H](Cc2ccccc2)C(=O)N[C@@H](CC(C)C)C(=O)N[C@H](CCCCN)C(=O)N[C@@H](CCC(=O)O)C(=O)N[C@H](CC(N)=O)C(=O)N[C@H](Cc2c[nH]c3ccccc23)C(=O)N[C@H](CCCN)C(=O)N(C)[C@@H](C(C)C)C(=O)O1 | 2 µg/mL (≈ 1.28 µM) | 1 µg/mL (≈ 0.641 µM)
CC(C)CCC[C@@H]1CC(=O)N[C@@H](CO)C(=O)N[C@H](CC(N)=O)C(=O)N[C@@H](CO)C(=O)NCC(=O)N[C@H](C)C(=O)N[C@@H](CC(C)C)C(=O)N[C@H](CCCN)C(=O)N[C@@H](CCC(=O)O)C(=O)N[C@H](CC(N)=O)C(=O)N[C@H](Cc2c[nH]c3ccccc23)C(=O)N[C@H](CCCN)C(=O)N(C)[C@@H](C(C)C)C(=O)O1 | ≥ 32 µg/mL | ≥ 32 µg/mL
CC(C)CCC[C@@H]1CC(=O)N[C@@H](CO)C(=O)N[C@H](CC(N)=O)C(=O)N[C@@H](CO)C(=O)NCC(=O)N(C)[C@H](Cc2ccccc2)C(=O)N[C@@H](CC(C)C)C(=O)N[C@H](CCCN)C(=O)N[C@@H](CCC(=O)O)C(=O)N[C@H](C)C(=O)N[C@H](Cc2c[nH]c3ccccc23)C(=O)N[C@H](CCCN)C(=O)N(C)[C@@H](C(C)C)C(=O)O1 | 1 µg/mL (≈ 0.665 µM) | 2 µg/mL (≈ 1.33 µM)
CC(C)CCC[C@@H]1CC(=O)N[C@@H](CO)C(=O)N[C@H](CC(N)=O)C(=O)N[C@@H](CO)C(=O)NCC(=O)N(C)[C@H](Cc2ccccc2)C(=O)N[C@@H](CC(C)C)C(=O)N[C@H](CCCN)C(=O)N[C@@H](CCC(=O)O)C(=O)N[C@H](CC(N)=O)C(=O)N[C@H](Cc2c[nH]c3ccccc23)C(=O)N[C@H](C)C(=O)N(C)[C@@H](C(C)C)C(=O)O1 | ≥ 32 µg/mL | ≥ 32 µg/mL
CC(C)CCC[C@@H]1CC(=O)N[C@@H](CO)C(=O)N[C@H]([C@H](O)C(N)=O)C(=O)N[C@@H](CO)C(=O)NCC(=O)N(C)[C@H](Cc2ccccc2)C(=O)N[C@@H](CC(C)C)C(=O)N[C@H](CCCN)C(=O)N[C@@H](CCC(=O)O)C(=O)N[C@H](CC(N)=O)C(=O)N[C@H](Cc2c[nH]c3ccccc23)C(=O)N[C@H](CCCN)C(=O)N(C)[C@@H](C(C)C)C(=O)O1 | 1 µg/mL (≈ 0.64 µM) | 1 µg/mL (≈ 0.64 µM)
